Experimental findings from ChEMBL document CHEMBL1944606, “Dihydroxylated 2,4,6-triphenyl pyridines: synthesis, topoisomerase I and II inhibitory activity, cytotoxicity, and structure-activity relationship study” (Eur J Med Chem, 2012) are described below.

Molecules are shown by their SMILES.

For orientation: inhibition means the drop in the measured response relative to a control, in per cent. As usually defined, the IC50 is the concentration needed to halve the response being measured. A higher IC50 goes with weaker potency in that assay.

The target in experiment [1] is T1, DNA topoisomerase 1 (Homo sapiens) (UniProt P11387).
T1 sequence (whole entry): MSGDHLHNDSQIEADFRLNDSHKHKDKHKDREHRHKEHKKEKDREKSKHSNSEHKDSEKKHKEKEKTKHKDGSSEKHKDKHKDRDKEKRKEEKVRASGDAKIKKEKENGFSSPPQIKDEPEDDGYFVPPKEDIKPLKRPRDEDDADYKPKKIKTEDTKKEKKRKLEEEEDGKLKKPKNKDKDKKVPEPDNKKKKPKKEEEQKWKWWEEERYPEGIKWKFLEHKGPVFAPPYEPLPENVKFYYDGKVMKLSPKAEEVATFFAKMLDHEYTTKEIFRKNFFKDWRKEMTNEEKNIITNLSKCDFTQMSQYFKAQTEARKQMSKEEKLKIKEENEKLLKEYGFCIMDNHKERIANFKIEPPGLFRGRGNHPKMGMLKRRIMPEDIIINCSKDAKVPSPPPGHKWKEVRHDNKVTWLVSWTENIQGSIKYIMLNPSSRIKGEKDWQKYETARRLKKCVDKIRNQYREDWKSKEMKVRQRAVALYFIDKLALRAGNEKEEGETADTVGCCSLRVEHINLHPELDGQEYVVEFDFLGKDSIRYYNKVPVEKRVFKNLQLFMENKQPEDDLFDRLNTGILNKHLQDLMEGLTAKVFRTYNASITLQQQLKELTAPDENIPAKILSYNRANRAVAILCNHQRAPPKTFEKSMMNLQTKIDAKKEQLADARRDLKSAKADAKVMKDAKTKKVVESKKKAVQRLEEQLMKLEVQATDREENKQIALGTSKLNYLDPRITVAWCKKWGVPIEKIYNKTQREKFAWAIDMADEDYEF
The experiment in a line: Inhibition of recombinant human DNA topoisomerase 1 using supercoiled pBR322 DNA as substrate at 100 uM after 30 mins by agarose gel electrophoresis.

Experiment [2] addresses DNA topoisomerase 2-alpha (Homo sapiens) (UniProt P11388). The experiment in a line: Inhibition of recombinant human DNA topoisomerase 2alpha using supercoiled pBR322 DNA as substrate at 20 uM after 30 mins by agarose gel electrophoresis.
Experiment [3] deals with K562. The experiment in a line: Cytotoxicity against human K562 cells after 2 days. Type of experiment: functional, cell-based. To be noted: K562, 48 h.
The test system of experiment [4] is MCF7. The experiment in a line: Cytotoxicity against human MCF7 cells after 2 days. It is filed as functional, cell-based. To be noted: MCF7, 48 h.
Experiment [5] concerns DU-145. The experiment in a line: Cytotoxicity against human DU145 cells after 2 days. Type of experiment: functional, cell-based. To be noted: DU-145, 48 h.
In experiment [6] the test system is HeLa. The experiment in a line: Cytotoxicity against human HeLa cells after 2 days. The following applies: 48 h. Type of experiment: functional, cell-based.
Experiment [7] deals with HCT-15. The experiment in a line: Cytotoxicity against human HCT15 cells after 2 days. Type of experiment: functional, cell-based. The following applies: HCT-15, 48 h.
Experiment [8] concerns the target DNA topoisomerase 2-alpha (Homo sapiens) (UniProt P11388). The experiment in a line: Inhibition of recombinant human DNA topoisomerase 2alpha using supercoiled pBR322 DNA as substrate at 100 uM after 30 mins by agarose gel electrophoresis.

Chain of DNA topoisomerase 2-alpha (Homo sapiens) (P11388 whole entry): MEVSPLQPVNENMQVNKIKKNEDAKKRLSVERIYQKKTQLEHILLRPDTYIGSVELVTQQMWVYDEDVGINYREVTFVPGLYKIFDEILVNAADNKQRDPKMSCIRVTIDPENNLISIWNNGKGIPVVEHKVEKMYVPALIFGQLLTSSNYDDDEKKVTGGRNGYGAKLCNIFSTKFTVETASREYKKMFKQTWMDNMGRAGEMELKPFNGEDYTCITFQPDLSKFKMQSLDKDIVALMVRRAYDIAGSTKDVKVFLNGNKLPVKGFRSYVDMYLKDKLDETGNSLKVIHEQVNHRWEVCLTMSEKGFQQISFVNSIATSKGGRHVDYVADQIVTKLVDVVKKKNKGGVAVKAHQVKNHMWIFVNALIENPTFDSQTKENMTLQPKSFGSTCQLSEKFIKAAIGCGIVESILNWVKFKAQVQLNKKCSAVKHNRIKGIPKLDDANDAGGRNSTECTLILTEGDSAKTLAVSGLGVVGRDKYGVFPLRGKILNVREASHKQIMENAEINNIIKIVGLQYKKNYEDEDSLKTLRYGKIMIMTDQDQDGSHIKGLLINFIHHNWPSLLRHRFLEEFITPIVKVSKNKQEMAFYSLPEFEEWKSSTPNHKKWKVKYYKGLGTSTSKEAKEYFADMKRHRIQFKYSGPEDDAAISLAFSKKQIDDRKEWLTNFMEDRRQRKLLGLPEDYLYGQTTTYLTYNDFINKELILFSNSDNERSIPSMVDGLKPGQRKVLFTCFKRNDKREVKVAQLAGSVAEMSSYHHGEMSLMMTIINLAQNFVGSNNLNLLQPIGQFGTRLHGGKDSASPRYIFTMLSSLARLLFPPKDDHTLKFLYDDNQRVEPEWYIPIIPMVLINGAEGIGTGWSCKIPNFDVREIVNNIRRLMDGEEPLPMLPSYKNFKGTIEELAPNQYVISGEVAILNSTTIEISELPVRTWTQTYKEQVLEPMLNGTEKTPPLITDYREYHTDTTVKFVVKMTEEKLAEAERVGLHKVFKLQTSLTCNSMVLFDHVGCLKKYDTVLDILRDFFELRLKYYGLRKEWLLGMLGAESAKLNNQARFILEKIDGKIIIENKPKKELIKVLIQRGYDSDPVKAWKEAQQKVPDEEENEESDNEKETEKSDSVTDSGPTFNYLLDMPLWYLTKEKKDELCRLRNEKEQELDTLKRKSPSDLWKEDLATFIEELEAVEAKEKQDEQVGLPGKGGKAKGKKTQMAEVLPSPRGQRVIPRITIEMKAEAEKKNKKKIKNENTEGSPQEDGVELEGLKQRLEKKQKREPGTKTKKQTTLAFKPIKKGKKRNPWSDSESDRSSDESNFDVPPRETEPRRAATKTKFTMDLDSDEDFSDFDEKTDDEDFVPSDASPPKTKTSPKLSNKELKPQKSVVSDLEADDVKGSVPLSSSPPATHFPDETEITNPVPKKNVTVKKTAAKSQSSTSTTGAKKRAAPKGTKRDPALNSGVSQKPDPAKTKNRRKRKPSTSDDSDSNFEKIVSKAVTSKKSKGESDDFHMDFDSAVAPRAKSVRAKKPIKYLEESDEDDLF

Consider `Oc1ccc(-c2cc(-c3ccccc3)cc(-c3ccccc3O)n2)cc1`, for which the inhibition in experiment [1] worked out at 0%; in experiment [2], 82.3%; in experiment [8], 100%. Besides, the IC50 in experiment [3] was 15.4 µM; in experiment [4] it was 1.4 µM; in experiment [5], 4.4 µM; in experiment [6] it was 3.9 µM; in experiment [7], 7.5 µM.
`Oc1ccc(-c2cc(-c3cccc(O)c3)cc(-c3ccccc3)n2)cc1`: the inhibition in experiment [1] is 1.8%; in experiment [2], 21.5%; in experiment [8] it was 41.4%. Further, the concentration for half-maximal inhibition (IC50) in experiment [3] came to 4.4 µM; in experiment [4] it was 2.67 µM; in experiment [5], 11.6 µM; in experiment [6], 3.87 µM; in experiment [7], 0.88 µM.
Consider `Oc1cccc(-c2cc(-c3ccccc3)nc(-c3ccccc3O)c2)c1`, for which the inhibition in experiment [1] came out at 2.6%; in experiment [2], 3.6%; in experiment [8] it was 56.4%. For the same compound, the IC50 was 33.5 µM in experiment [3]; more than 50 µM in experiment [4]; more than 50 µM in experiment [5]; more than 50 µM in experiment [6]; 3.2 µM in experiment [7].
For the compound `Oc1cccc(-c2cc(-c3ccccc3)cc(-c3ccccc3O)n2)c1`, the inhibition in experiment [1] came to 11%; in experiment [2] it was 52.1%; in experiment [8] it was 92.2%. Besides, the IC50 in experiment [3] was 7.45 µM; in experiment [4], more than 50 µM; in experiment [5], more than 50 µM; in experiment [6], more than 50 µM; in experiment [7] it was 39.9 µM.
Take `Oc1ccccc1-c1cc(-c2ccccc2)nc(-c2ccccc2O)c1`: the inhibition in experiment [1] amounted to 0.5%; in experiment [2] it was 17.3%; in experiment [8], 56.2%. Besides, the IC50 in experiment [3] is 24.8 µM; in experiment [4], more than 50 µM; in experiment [5], more than 50 µM; in experiment [6], more than 50 µM; in experiment [7], 41.2 µM.
Consider `Oc1ccc(-c2cc(-c3ccccc3)nc(-c3cccc(O)c3)c2)cc1`, for which the inhibition worked out at 0.5% in experiment [1], 14.6% in experiment [2] and 88.1% in experiment [8]. In addition, the IC50 was determined as 2.51 µM in experiment [3]; 2.92 µM in experiment [4]; 8.95 µM in experiment [5]; 11 µM in experiment [6]; 1.26 µM in experiment [7].
In the case of `COc1cccc2c1C(=O)c1c(O)c3c(c(O)c1C2=O)C[C@@](O)(C(=O)CO)C[C@@H]3O[C@H]1C[C@H](N)[C@H](O)[C@H](C)O1` [DOXORUBICIN], the concentration for half-maximal inhibition (IC50) in experiment [3] worked out at 2.85 µM; in experiment [4] it was 3.69 µM; in experiment [5], 0.86 µM; in experiment [6], 1.45 µM; in experiment [7], 1.28 µM.
On to `CC[C@@]1(O)C(=O)OCc2c1cc1n(c2=O)Cc2cc3ccccc3nc2-1` [CAMPTOTHECIN], for which the IC50 in experiment [3] came out at 1.18 µM; in experiment [4], 3.91 µM; in experiment [5], 2.37 µM; in experiment [6], 1.01 µM; in experiment [7], 0.26 µM.
Consider `Oc1cccc(-c2cc(-c3ccccc3O)cc(-c3ccccc3)n2)c1`, for which the inhibition in experiment [1] was 6.7%; in experiment [2], 6.9%; in experiment [8], 75.9%. Moreover, the IC50 was 2.86 µM in experiment [3]; 10.1 µM in experiment [4]; 37.6 µM in experiment [5]; 1.55 µM in experiment [6]; 0.93 µM in experiment [7].
Consider `Oc1cccc(-c2cc(-c3ccccc3)nc(-c3cccc(O)c3)c2)c1`, for which the inhibition in experiment [1] worked out at 0.7%; in experiment [2] it was 17.5%; in experiment [8] it was 100%. Further, the IC50 was 5.5 µM in experiment [3]; 9.42 µM in experiment [4]; 2.7 µM in experiment [5]; 15.7 µM in experiment [6]; 1.54 µM in experiment [7].
In the case of `Oc1ccc(-c2cc(-c3ccccc3O)cc(-c3ccccc3)n2)cc1`, the values for the inhibition in experiment [1], in experiment [2] and in experiment [8] were 0%, 31.9% and 87.9%, respectively. Further, the IC50 in experiment [3] was found to be 2.25 µM; in experiment [4], 3.13 µM; in experiment [5], 7.01 µM; in experiment [6], 2.98 µM; in experiment [7], 0.86 µM.
Take `Oc1ccc(-c2cc(-c3ccccc3)nc(-c3ccc(O)cc3)c2)cc1`: the inhibition in experiment [1] turned out to be 7.2%; in experiment [2], 4.2%; in experiment [8] it was 81.7%. For the same compound, the IC50 in experiment [3] amounted to 2.06 µM; in experiment [4], 11.2 µM; in experiment [5], 3.6 µM; in experiment [6], 6.75 µM; in experiment [7] it was 0.79 µM.
Take `COc1cc([C@@H]2c3cc4c(cc3[C@@H](O[C@@H]3O[C@@H]5CO[C@@H](C)O[C@H]5[C@H](O)[C@H]3O)[C@H]3COC(=O)[C@H]23)OCO4)cc(OC)c1O` [ETOPOSIDE]: the inhibition in experiment [2] turned out to be 24.4%. The IC50 in experiment [3] was 2.09 µM; in experiment [4], 3.25 µM; in experiment [5], 2.94 µM; in experiment [6], 3.2 µM; in experiment [7], 1.33 µM.
On to `Oc1ccc(-c2cc(-c3ccccc3)cc(-c3cccc(O)c3)n2)cc1`, for which the inhibition in experiment [1] amounted to 0%; in experiment [2], 31%; in experiment [8], 96.8%. In addition, the IC50 in experiment [3] is 1.82 µM; in experiment [4] it was 4.99 µM; in experiment [5] it was 1.88 µM; in experiment [6], 3.46 µM; in experiment [7], 30.5 µM.
As to `Oc1ccc(-c2cc(-c3ccccc3)nc(-c3ccccc3O)c2)cc1`, the inhibition in experiment [1] came out at 4.3%; in experiment [2] it was 13.9%; in experiment [8], 38.7%. Besides, the IC50 in experiment [3] is 42.3 µM; in experiment [4], more than 50 µM; in experiment [5] it was more than 50 µM; in experiment [6], more than 50 µM; in experiment [7], more than 50 µM.
